Measurements published in US20080227752A1, “Methods to Inhibit Histone Acetyltransferase Using Glycosaminoglycans” (Trustees of Boston University, priority 2004, published 2008).
“Also recorded” adds a separate entry of the source.

Experiments:
p300 HAT domain [1] = target: T1, p300 HAT domain (Homo sapiens, UniProt Q09472); test: In vitro HAT activity assay, biotinylated histone H4 peptide substrate, streptavidin capture; assay type: biochemical; details: for HAT inhibitory activity of modified heparins: 10 ug/ml, p300, H4 peptide (FIG. 9)
T1 construct: 20 U/mL of HAT enzyme (p300 HAT domain; from Upstate); purchased Upstate (Lake Placid, N.Y.)
T1 sequence (Q09472 1287-1663 limits assumed): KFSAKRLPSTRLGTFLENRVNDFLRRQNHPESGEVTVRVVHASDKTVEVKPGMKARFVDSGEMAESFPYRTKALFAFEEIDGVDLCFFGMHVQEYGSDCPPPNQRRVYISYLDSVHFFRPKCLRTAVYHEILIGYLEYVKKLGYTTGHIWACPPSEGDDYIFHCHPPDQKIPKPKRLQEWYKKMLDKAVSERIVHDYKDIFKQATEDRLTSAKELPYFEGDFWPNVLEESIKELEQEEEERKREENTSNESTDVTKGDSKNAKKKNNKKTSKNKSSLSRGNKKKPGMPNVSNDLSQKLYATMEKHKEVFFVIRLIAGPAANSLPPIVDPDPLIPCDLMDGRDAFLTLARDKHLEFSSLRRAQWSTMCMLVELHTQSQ
Protocol: Biotinylated histone H4 peptide (substrate) is incubated with recombinant HAT enzyme (p300 catalytic domain) and ^3H-Acetyl-CoA, resulting in the covalent transfer of ^3H-acetate to the substrate. The ^3H-acetylated substrate can be extracted using immobilized streptavidin and counted in a scintillation counter. Thus, the amount of ^3H-acetylated substrate is a direct measure of HAT enzyme activity. Additional assays for HAT activity use core histones as the substrate and the ^3H-acetylated histone reaction products were separated from ^3H-Acetyl-CoA by membrane filtration.
Various concentrations of heparin were incubated in the presence of biotinylated histone H4 peptide, recombinant p300 catalytic domain, and [^3H]-acetyl-CoA for 1 hr at 30° C. Immobilized streptavidin was used to sequester the biotinylated substrate and was counted in a scintillation counter. Data presented are means of duplicates ±1 SE and are representative of five separate experiments. The amount of [^3H] associated with the immobilized streptavidin-biotinylated substrate in the absence of HAT enzyme (negative control) was 54.2±12.0.
HAT activity was assessed in vitro as outlined in FIG. 2. In a 1.7 mL microcentrifuge tube, 100 μL of substrate (biotinylated histone H4 peptide in 50 mM Tris, pH 7.4, 1 mM EDTA; from Pierce), 100 μL of a 5 mg/mL BSA solution (in H2O), 10.5 μL of 10×HAT buffer (500 mM Tris, pH 7.4, 10 mM EDTA), 20 U/mL of HAT enzyme (p300 HAT domain; from Upstate), and 1 μCi/mL of [^3H] Acetyl-CoA (Amersham) were mixed together and the reaction was allowed to proceed at 30° C. for 1 hour. Following this incubation, 100 μL of a 1:1 slurry of immobilized streptavidin (Pierce) pre-equilibrated in 1×HAT buffer (50 mM Tris, pH 7.4, 1 mM EDTA) was added and the sample was incubated for 30 min at RT on a rotating platform. After centrifugation at 10,000 g for 4 min, the supernatant containing the excess reactants was removed and the pellet containing the acetylated substrate bound to the immobilized streptavidin was washed 3 times with 500 μL RIPA buffer (50 mM Tris, pH 7.4, 150 mM NaCl, 1 mM EDTA, 1% NP-40, 0.5% SDC, 0.1% SDS). After the final wash, the pellet was resuspended in 500 μL 1×HAT buffer, diluted in EcoLite, and counted in a scintillation counter. Because of sample volume restrictions, reaction volumes were scaled down in some experiments.

pCAF = target: T2, pCAF (Homo sapiens, UniProt Q92831); test: Core histone acetylation filter binding HAT assay, pCAF; assay type: biochemical; details: core histones; for inhibitory activity on pCAF HAT: range of concentrations tested; for 50% inhibition (IC50): 30 minutes 30° C
T2 construct: purchased BIOMOL International (Plymouth Meeting, Pa.)
Protocol: (§1) In the presence of 0.5 μCi [^3H]acetyl Co A, 10 μg core histones was incubated with either 0.5 μg pCAF (filled circles, […]) or 0.83 μg p300 HAT domain (open circles, ∘) and the indicated heparin concentrations for 30 minutes at 30° C. Formation of [^3H]acetylated core histones was determined by vacuum filtration of the samples across a nitrocellulose membrane and quantitated by liquid scintillation counting. The data is expressed as the mean % Control ±SD. Background CPM in samples without added enzyme was 5781.25 while [^3H]acetylated histone CPM in samples without heparin were 16484.5 for the pCAF containing samples and 9960.5 for the p300 HAT domain samples.
10 μg core histones were incubated with 0.5 μg pCAF, 0.5 μCi [^3H]acetyl Co A and the indicated concentrations of chondroitin sulfate (filled circles, […]), dextran (open circles, ∘), D-glucosamine (filled squares, ▪), hyaluronic acid (open squares, □) or keratan sulfate (filled triangles, ▴) for 30 minutes at 30° C. 35 μl aliquots of the reaction mixtures were spotted onto nitrocellulose filter in a dot blot apparatus under vacuum to remove unincorporated [^3H]acetyl Co A. The sample wells and filters were washed with 50 mM tris pH 7.6 and the samples were processed for liquid scintillation counting. The data is expressed as the mean % Control ±SD. 100% is equal to the activity in the absence of any additives.
(§2) 10 μg core histones was incubated with 0.5 μg pCAF, 0.5 μCi [^3H]acetyl Co A and the indicated concentrations of N-Desulfated Heparin (filled circles, […]) or Fully O-Desulfated Heparin (open circles, ∘) for 30 minutes at 30° C. 35 μl aliquots of the reaction mixtures were filtered through a nitrocellulose filter in a Bio Dot Apparatus under vacuum. The wells and filter were washed with 50 mM tris pH 7.6 and the membrane was processed for liquid scintillation counting. The data is expressed as the mean % Control ±SD.
FIGS. 15A and 15B show inhibition of pCAF HAT Activity by elastase generated proteoglycans. FIG. 15A, Proteoglycans (PG) were purified from pulmonary fibroblast elastase supernatants using anion exchange chromatographic methods. Heparan sulfate proteoglycan fragments (HSPGf) were generated by treating the PG fraction with 10 mU/ml chondroitinase ABC and repurifying the fragments by anion exchange chromatography. Core histones (10 μg) were incubated with 0.5 μg pCAF, 0.5 μCi [^3H]acetyl Co A and the indicated concentrations of PG (filled squares, ▪) or HSPGf (open squares, □) for 30 minutes at 30° C. 35 μl aliquots of the reaction mixtures were filtered through a nitrocellulose filter and the membrane was processed for liquid scintillation counting. The data is expressed as the mean % Control ±SD. FIG. 15B, Proteoglycans (PG) were purified from another preparation of pulmonary fibroblast elastase supernatants. Free GAG chains (B-PG) were generated by treating the PG fraction with alkaline borohydride and were recovered by anion exchange methods. Core histones (Core histones (10 μg) were incubated with 0.5 μg pCAF, 0.5 μCi [^3H]acetyl Co A and the indicated concentrations of PG (filled squares, ▪) or B-PG (open squares, □) for 30 minutes at 30° C. 35 μl aliquots of the reaction mixtures were filtered through a nitrocellulose filter and the membrane was processed for liquid scintillation counting. The data is expressed as the mean % Control ±SD.
as §2, with “2-O-Desulfated” for “N-Desulfated”, “([…])” for “(filled circles, […])”, “6-O-Desulfated” for “Fully O-Desulfated”, “(∘)” for “(open circles, ∘)”, “±SD. […]” for “±SD.”

p300 HAT domain [2] = target: T1, p300 HAT domain; test: Core histone acetylation filter binding HAT assay, p300; assay type: biochemical; details: core histones, 30 minutes 30° C
Protocol: as §1
Heparin-mediated inhibition of HAT activity was determined using two independent methods. The first assay method used a modified protocol to measure the ability of pCAF or p300 to acetylate a synthetic, biotinylated peptide of histone H3 or H4 in the absence and presence of heparin or its derivatives. Commercially available pCAF or p300 HAT domain were added to an iced reactions mixture containing 3 μg biotinylated Histone H3 or H4 peptide, 50 mM tris pH 7.4, 1 mM EDTA with and without the indicated concentrations of heparin. […] The filter was allowed to air dry and the filters were processed and counted using liquid scintillation methods.

[3] = tested on: histone H3 acetylation in pulmonary fibroblasts; test: Histone H3 acetylation in pulmonary fibroblasts by western blot; assay type: cell-based, neonatal rat; details: 10 μg/ml, 24 h
Protocol: (§3) Primary neonatal rat fibroblasts and smooth muscle cells were established as described (Foster, J. A. et al., (1990)) and treated with heparin or N-desulfated heparin (10 μg/ml) for 24 h. Total cell extracts (100 μg protein for fibroblasts and 200 μg protein for smooth muscle cells) were generated and subjected to SDS-PAGE followed by electrotransfer to Immobilon membrane. Membranes were incubated with anti-acetylated histone H3 (Upstate) followed by enzyme linked secondary antibody. Bands were visualized with ECL.
Primary cultures of pulmonary fibroblasts were isolated from the lungs of neonatal rats using established protocols (Foster, J. A., et al., (1990) Pulmonary fibroblasts: an in vitro model of emphysema. Regulation of elastin gene expression, J Biol Chem 265, 15544-9). The cells were maintained in Dulbecco's Minimal Essential Medium supplemented with 5% fetal bovine serum, 0.1 mM non-essential amino acid solution, 100 U/ml penicillin and 100 μg/ml streptomycin. The cells were used in second passage for all experiments. Cell number determination was made based upon assay of cellular acid phosphatase levels using a previously established method (Connolly, D. T., et al., (1986) Anal. Biochem. 152, 136-140).
Immobilon membranes were blocked for 1 hour at room temperature with blocking buffer containing 3% milk in tris buffered saline containing 0.1% tween-20 (TBST). […]

[4] = tested on: histone H3 acetylation in aortic smooth muscle cells; test: Histone H3 acetylation in aortic smooth muscle cells by western blot; assay type: cell-based, neonatal rat; details: 10 μg/ml, 24 h
Protocol: as §3
Immobilon membranes were blocked for 1 hour at room temperature with blocking buffer containing 3% milk in tris buffered saline containing 0.1% tween-20 (TBST). The blots were rinsed twice with TBST prior to incubation with the primary antibody solutions. The blots were incubated with the appropriate antibody dilution for 1 hour at room temperature or overnight at 4° C. The blots were washed with TBST prior to incubation with the appropriate HRP-linked IgG for 1 hour at room temperature. The blots were washed with TBST prior to chemiluminescence exposure.
We also treated another cell type, aortic smooth muscle cells, with heparin to determine if this response was general or specific to the pulmonary cells.

T2 sequence (Q92831 whole entry): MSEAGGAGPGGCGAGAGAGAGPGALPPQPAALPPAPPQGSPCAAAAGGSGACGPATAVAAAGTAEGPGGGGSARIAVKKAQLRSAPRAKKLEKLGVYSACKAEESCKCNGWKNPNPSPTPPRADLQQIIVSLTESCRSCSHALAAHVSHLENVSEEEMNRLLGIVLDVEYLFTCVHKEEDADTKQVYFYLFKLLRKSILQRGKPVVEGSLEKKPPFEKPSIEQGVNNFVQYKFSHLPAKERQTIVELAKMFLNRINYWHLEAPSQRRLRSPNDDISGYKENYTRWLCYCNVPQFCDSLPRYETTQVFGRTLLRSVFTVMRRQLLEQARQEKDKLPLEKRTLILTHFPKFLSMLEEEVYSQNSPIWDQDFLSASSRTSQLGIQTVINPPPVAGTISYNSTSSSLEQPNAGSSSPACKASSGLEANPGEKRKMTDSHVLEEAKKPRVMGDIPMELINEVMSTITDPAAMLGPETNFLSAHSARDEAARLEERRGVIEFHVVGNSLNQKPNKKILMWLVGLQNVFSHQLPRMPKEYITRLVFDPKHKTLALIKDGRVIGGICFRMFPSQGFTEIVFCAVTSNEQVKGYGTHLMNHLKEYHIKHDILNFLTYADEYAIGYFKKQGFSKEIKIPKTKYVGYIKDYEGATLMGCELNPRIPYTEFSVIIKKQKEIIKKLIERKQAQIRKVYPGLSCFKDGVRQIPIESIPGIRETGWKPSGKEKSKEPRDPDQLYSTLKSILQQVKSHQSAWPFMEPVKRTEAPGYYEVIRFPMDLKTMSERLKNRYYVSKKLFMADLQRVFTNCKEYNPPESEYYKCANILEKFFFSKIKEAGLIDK

2-O desulfated heparin
HAT inhibitory activity of modified heparins (p300 HAT domain [1]): retained HAT inhibitory activity; also recorded: showed reduced activity when compared to heparin | inhibitory activity on pCAF HAT (pCAF): did not result in significant loss of function

6-O desulfated heparin
HAT inhibitory activity of modified heparins (p300 HAT domain [1]): retained HAT inhibitory activity; also recorded: showed reduced activity when compared to heparin | inhibitory activity on pCAF HAT (pCAF): did not result in significant loss of function

CC(=O)N[C@H]1C(O)O[C@H](CO)[C@@H](O)[C@@H]1O (stereo partly drawn) [N-acetyl glucosamine, N-Acetyl-D-glucosamine, reference compound]
inhibitory activity on pCAF HAT (pCAF): none of the monosaccharides showed any significant inhibitory activity

N[C@H]1C(O)O[C@H](CO)[C@@H](O)[C@@H]1O (stereo partly drawn) [glucosamine, D-glucosamine, reference compound]
inhibitory activity on pCAF HAT (pCAF): none of the monosaccharides showed any significant inhibitory activity

O=C[C@H](O)[C@@H](O)[C@H](O)[C@H](O)C(=O)O [glucuronic acid, reference compound]
inhibitory activity on pCAF HAT (pCAF): none of the monosaccharides showed any significant inhibitory activity

N-desulfated heparin
HAT inhibitory activity of modified heparins (p300 HAT domain [1]): nearly eliminated HAT (p300) inhibition | 50% inhibition (IC50) (pCAF): ~20 µg/mL

chondroitin sulfate
inhibitory activity on pCAF HAT (pCAF): showed inhibition

dextran [reference compound]
inhibitory activity on pCAF HAT (pCAF): did not show any inhibitory activity

heparin [reference compound]
50% inhibition (IC50) (p300 HAT domain [2]): ~5 µg/mL | level of histone H3 acetylation [3]: reduced histone H3 actetylation slightly | inhibition of HAT activity (p300 HAT domain [1]; 34 μg/mL): almost complete inhibition | IC50 (p300 HAT domain [1]; molecular weight ~15 kD, read-out: IC50 for HAT activity, molar equivalent): ~1100 nM | level of histone H3 acetylation [4]: significant reduction of histone H3 acetylation | 50% inhibition (IC50) (pCAF): ~7 µg/mL

hyaluronic acid
effectiveness relative to heparin and other GAGs (pCAF): the least effective | inhibitory activity on pCAF HAT (pCAF): showed inhibition

keratan sulfate
inhibitory activity on pCAF HAT (pCAF): showed inhibition
